Values joined by “and” are separate entries in the source; they are usually repeats but may differ in a detail not shown here. Equal values may be shown once.
Columns and labels:
Experiment in all cases: radiometric filter-binding kinase assay, Kinase HotSpot
Conditions in all cases: compound 0.5 µM; ATP 10 µM
FES (human) = FES (human) (UniProt P07332)
LYN (human) = LYN (human) (UniProt P07948)
CDK3 CCNE1 (human) = CDK3 CCNE1 (human) (UniProt Q00526+P24864)
JAK2 JH1 JH2 (human) = JAK2 JH1 JH2 (human) (UniProt O60674)
SGK3 (human) = SGK3 (human) (UniProt Q96BR1)
TEC (human) = TEC (human) (UniProt P42680)
GRK7 (human) = GRK7 (human) (UniProt Q8WTQ7)
ITK (human) = ITK (human) (UniProt Q08881)
ITK (human), sequence (Q08881 whole entry, looked up): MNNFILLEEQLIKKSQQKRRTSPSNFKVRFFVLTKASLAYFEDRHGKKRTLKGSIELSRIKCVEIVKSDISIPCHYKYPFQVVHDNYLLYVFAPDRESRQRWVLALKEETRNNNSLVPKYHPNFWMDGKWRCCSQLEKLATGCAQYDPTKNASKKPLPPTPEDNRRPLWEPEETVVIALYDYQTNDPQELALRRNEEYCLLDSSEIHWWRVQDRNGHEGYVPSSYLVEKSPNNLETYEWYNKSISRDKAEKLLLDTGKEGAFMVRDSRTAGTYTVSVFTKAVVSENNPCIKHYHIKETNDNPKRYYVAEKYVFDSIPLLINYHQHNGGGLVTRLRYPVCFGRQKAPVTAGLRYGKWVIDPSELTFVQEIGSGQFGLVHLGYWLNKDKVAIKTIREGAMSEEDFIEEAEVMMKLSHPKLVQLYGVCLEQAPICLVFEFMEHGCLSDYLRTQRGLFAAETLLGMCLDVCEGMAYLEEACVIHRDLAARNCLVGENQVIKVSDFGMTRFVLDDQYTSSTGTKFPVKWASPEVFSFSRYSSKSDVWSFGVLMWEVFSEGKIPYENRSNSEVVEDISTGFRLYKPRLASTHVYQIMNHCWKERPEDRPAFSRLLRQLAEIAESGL

TXK (human) = TXK (human) (UniProt P42681)
PLK3 (human) = PLK3 (human) (UniProt Q9H4B4)
CSK (human) = CSK (human) (UniProt P41240)
MARK2 (human) = MARK2 (human) (UniProt Q7KZI7)
SRC (human) = SRC (human) (UniProt P12931)
FGFR1 (human) = FGFR1 (human) (UniProt P11362)
FGFR1 (human), sequence (P11362 whole entry, looked up): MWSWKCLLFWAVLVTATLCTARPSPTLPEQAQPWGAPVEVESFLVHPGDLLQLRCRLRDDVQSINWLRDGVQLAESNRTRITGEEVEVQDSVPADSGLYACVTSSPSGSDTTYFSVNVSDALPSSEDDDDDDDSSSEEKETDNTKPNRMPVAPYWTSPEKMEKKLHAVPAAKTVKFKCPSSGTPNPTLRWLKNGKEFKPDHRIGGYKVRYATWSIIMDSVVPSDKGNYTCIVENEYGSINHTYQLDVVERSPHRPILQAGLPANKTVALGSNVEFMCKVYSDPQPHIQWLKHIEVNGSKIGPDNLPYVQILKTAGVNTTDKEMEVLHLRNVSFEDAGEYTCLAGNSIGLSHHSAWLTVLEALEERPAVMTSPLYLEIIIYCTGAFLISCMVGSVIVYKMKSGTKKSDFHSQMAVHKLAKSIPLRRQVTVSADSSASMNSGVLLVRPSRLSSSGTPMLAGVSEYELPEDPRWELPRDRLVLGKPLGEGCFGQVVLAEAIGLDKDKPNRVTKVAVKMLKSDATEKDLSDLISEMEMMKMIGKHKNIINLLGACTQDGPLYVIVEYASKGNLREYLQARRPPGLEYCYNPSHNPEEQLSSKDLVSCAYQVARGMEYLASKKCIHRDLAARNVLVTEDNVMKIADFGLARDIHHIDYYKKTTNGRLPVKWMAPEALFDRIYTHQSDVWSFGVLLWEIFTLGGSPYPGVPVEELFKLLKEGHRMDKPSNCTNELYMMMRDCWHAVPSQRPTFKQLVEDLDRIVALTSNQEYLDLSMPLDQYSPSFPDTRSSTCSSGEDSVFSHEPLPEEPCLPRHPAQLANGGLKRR

CAMKK2 (human) = CAMKK2 (human) (UniProt Q96RR4)
MAPK1 (human) = MAPK1 (human) (UniProt P28482)
PAK1 (human) = PAK1 (human) (UniProt Q13153)
PAK1 (human), sequence (Q13153 whole entry, looked up): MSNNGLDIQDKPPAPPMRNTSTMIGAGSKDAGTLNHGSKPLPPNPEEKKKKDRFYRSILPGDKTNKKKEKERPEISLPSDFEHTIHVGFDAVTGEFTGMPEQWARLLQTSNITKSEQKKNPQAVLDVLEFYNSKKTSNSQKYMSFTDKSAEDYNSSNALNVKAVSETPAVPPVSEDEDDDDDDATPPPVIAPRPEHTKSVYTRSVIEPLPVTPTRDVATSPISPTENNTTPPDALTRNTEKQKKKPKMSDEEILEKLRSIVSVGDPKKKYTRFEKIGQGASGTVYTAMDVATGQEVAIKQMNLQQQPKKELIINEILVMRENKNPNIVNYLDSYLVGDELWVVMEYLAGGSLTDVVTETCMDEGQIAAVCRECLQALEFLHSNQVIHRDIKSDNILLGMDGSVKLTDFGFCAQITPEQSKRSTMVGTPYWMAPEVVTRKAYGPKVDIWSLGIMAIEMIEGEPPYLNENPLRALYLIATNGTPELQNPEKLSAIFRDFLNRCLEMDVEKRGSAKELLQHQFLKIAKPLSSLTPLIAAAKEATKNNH

MAPK9 (human) = MAPK9 (human) (UniProt P45984)
CDC42BPA (human) = CDC42BPA (human) (UniProt Q5VT25)
EPHA7 (human) = EPHA7 (human) (UniProt Q15375)
INSRR (human) = INSRR (human) (UniProt P14616)
PRKD3 (human) = PRKD3 (human) (UniProt O94806)
RPS6KA6 KD1 KD2 (human) = RPS6KA6 KD1 KD2 (human) (UniProt Q9UK32)
RPS6KA6 KD1 KD2 (human), sequence (Q9UK32 whole entry, looked up): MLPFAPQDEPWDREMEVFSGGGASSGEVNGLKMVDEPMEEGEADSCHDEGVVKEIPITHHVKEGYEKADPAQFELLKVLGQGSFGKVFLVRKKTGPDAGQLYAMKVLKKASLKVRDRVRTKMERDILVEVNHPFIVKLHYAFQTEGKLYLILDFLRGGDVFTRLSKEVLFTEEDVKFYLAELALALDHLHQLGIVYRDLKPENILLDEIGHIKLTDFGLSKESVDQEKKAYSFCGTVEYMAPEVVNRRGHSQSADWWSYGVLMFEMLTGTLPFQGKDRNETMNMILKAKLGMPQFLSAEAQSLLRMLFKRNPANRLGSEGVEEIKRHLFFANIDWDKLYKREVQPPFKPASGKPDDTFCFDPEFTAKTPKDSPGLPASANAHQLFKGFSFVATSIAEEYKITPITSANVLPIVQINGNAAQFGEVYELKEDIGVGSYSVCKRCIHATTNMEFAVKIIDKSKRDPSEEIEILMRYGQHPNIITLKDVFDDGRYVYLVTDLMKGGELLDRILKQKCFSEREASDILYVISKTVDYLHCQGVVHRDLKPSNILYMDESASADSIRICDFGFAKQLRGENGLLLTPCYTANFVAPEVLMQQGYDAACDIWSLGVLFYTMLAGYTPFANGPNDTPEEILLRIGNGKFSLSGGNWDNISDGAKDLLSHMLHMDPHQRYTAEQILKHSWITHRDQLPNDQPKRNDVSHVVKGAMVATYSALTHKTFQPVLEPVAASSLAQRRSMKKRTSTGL

PASK (human) = PASK (human) (UniProt Q96RG2)
TTK (human) = TTK (human) (UniProt P33981)
EPHB1 (human) = EPHB1 (human) (UniProt P54762)
NEK1 (human) = NEK1 (human) (UniProt Q96PY6)
MKNK2 (human) = MKNK2 (human) (UniProt Q9HBH9)
DDR2 (human) = DDR2 (human) (UniProt Q16832)
RPS6KA3 KD1 KD2 (human) = RPS6KA3 KD1 KD2 (human) (UniProt P51812)
RPS6KA3 KD1 KD2 (human), sequence (P51812 whole entry, looked up): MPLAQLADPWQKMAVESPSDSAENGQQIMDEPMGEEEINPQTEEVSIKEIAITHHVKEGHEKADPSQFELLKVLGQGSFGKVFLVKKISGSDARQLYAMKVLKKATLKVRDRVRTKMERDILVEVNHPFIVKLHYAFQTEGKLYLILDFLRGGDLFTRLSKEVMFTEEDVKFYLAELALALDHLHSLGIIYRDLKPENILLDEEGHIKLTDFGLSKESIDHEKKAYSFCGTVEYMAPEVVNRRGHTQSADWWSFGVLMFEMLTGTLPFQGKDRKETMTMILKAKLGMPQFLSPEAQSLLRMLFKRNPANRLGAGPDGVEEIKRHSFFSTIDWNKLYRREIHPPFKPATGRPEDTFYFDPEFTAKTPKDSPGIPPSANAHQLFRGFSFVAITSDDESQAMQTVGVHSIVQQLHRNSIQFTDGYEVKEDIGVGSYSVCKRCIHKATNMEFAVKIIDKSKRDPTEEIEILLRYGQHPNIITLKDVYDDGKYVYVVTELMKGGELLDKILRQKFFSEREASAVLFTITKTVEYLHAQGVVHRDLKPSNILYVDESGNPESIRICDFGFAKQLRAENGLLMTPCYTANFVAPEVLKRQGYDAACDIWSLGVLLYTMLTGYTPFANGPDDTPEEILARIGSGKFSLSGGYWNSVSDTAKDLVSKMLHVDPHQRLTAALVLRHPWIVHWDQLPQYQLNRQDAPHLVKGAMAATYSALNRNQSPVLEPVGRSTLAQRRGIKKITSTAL

AKT3 (human) = AKT3 (human) (UniProt Q9Y243)
DSTYK (human) = DSTYK (human) (UniProt Q6XUX3)
DSTYK (human), sequence (Q6XUX3 whole entry, looked up): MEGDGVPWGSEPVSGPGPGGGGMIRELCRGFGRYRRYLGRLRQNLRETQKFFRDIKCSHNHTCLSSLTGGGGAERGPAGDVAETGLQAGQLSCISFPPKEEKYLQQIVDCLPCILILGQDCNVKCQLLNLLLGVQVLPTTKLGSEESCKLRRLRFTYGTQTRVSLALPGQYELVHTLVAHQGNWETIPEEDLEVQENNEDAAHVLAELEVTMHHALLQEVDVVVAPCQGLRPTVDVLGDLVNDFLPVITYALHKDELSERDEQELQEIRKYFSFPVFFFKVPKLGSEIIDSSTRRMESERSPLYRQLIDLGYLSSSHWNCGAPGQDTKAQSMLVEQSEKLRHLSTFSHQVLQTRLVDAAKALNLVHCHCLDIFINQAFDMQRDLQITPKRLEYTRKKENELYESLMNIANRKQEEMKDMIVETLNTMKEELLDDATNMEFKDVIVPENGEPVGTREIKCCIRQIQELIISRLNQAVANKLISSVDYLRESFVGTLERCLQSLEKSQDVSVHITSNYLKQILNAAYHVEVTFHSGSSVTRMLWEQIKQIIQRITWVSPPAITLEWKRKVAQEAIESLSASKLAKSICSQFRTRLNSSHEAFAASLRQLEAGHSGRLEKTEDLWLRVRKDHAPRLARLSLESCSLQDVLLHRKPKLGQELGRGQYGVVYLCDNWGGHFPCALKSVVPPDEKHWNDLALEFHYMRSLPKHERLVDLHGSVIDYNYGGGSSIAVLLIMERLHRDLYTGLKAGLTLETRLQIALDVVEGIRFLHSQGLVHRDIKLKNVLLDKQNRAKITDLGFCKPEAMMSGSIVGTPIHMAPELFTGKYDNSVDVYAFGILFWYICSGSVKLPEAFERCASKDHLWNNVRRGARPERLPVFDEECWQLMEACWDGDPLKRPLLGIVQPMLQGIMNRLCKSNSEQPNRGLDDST

ADRBK2 (human) = ADRBK2 (human) (UniProt P35626)
STK11 (human) = STK11 (human) (UniProt Q15831)
FYN (human) = FYN (human) (UniProt P06241)
BRSK2 (human) = BRSK2 (human) (UniProt Q8IWQ3)
NEK7 (human) = NEK7 (human) (UniProt Q8TDX7)
CDK5 CDK5R1 p25 (human) = CDK5 CDK5R1 p25 (human) (UniProt Q00535+Q15078)
ALK (human) = ALK (human) (UniProt Q9UM73)
CAMK1G (human) = CAMK1G (human) (UniProt Q96NX5)
PRKCG (human) = PRKCG (human) (UniProt P05129)
FGFR4 (human) = FGFR4 (human) (UniProt P22455)

LYN (human), sequence (P07948 whole entry, looked up): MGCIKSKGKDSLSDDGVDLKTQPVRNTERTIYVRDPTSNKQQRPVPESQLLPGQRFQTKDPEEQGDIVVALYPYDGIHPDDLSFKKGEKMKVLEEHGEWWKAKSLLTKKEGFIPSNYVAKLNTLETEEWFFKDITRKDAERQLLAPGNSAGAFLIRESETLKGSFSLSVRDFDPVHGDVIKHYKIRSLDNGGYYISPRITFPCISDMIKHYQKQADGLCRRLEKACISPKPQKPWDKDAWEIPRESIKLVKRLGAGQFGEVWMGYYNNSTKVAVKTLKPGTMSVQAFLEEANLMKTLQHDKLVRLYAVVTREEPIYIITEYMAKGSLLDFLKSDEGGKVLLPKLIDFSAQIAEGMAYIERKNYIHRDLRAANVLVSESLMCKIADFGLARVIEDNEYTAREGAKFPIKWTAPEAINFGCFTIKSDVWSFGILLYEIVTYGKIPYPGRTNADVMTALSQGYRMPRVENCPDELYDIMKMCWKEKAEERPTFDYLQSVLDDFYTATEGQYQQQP

Question: How did the residual activity (FES (human)) turn out when `CS(=O)c1ccc(-c2nc(-c3ccc(F)cc3)c(-c3ccncc3)[nH]2)cc1` (centres undefined) was run?
Answer: 97.3%

Question: And the residual activity (LYN (human))?
Answer: 91.8% and 99.1%

Question: And the residual activity (CDK3 CCNE1 (human))?
Answer: 94.6%

Question: And the residual activity (JAK2 JH1 JH2 (human))?
Answer: 99.5%

Question: And the residual activity (SGK3 (human))?
Answer: 101%

Question: What about the residual activity (TEC (human)) of the same molecule?
Answer: 113%

Question: And the residual activity (GRK7 (human))?
Answer: 107%

Question: And the residual activity (ITK (human))?
Answer: 97%

Question: What about the residual activity (TXK (human)) of the same molecule?
Answer: 63.9%

Question: What about the residual activity (PLK3 (human)) of the same molecule?
Answer: 97.3%

Question: What about the residual activity (CSK (human)) of the same molecule?
Answer: 87.7%

Question: What about the residual activity (MARK2 (human)) of the same molecule?
Answer: 99.1%

Question: What about the residual activity (SRC (human)) of the same molecule?
Answer: 92.6%

Question: And the residual activity (FGFR1 (human))?
Answer: 90.7%

Question: And the residual activity (CAMKK2 (human))?
Answer: 110%

Question: What about the residual activity (MAPK1 (human)) of the same molecule?
Answer: 94.7%

Question: What about the residual activity (PAK1 (human)) of the same molecule?
Answer: 99.2%

Question: What about the residual activity (MAPK9 (human)) of the same molecule?
Answer: 100%

Question: And the residual activity (CDC42BPA (human))?
Answer: 94.3%

Question: What about the residual activity (EPHA7 (human)) of the same molecule?
Answer: 83.1%

Question: What about the residual activity (INSRR (human)) of the same molecule?
Answer: 100%

Question: What about the residual activity (PRKD3 (human)) of the same molecule?
Answer: 84.1%

Question: What about the residual activity (RPS6KA6 KD1 KD2 (human)) of the same molecule?
Answer: 110%

Question: What about the residual activity (PASK (human)) of the same molecule?
Answer: 99.1%

Question: What about the residual activity (TTK (human)) of the same molecule?
Answer: 99.9%

Question: What about the residual activity (EPHB1 (human)) of the same molecule?
Answer: 93%

Question: What about the residual activity (NEK1 (human)) of the same molecule?
Answer: 94.7%

Question: What about the residual activity (MKNK2 (human)) of the same molecule?
Answer: 94.4%

Question: And the residual activity (DDR2 (human))?
Answer: 103%

Question: And the residual activity (RPS6KA3 KD1 KD2 (human))?
Answer: 95.7%

Question: And the residual activity (AKT3 (human))?
Answer: 102%

Question: What about the residual activity (DSTYK (human)) of the same molecule?
Answer: 100%

Question: And the residual activity (ADRBK2 (human))?
Answer: 98.2%

Question: What about the residual activity (STK11 (human)) of the same molecule?
Answer: 81.6%

Question: And the residual activity (FYN (human))?
Answer: 89.8%

Question: And the residual activity (BRSK2 (human))?
Answer: 101%

Question: And the residual activity (NEK7 (human))?
Answer: 98.9%

Question: And the residual activity (CDK5 CDK5R1 p25 (human))?
Answer: 90.6%

Question: And the residual activity (ALK (human))?
Answer: 105%

Question: And the residual activity (CAMK1G (human))?
Answer: 99.3%

Question: What about the residual activity (PRKCG (human)) of the same molecule?
Answer: 90%

Question: What about the residual activity (FGFR4 (human)) of the same molecule?
Answer: 73.8%

Question: With `O=C(Nc1ccc(Cl)cc1)c1ccccc1NCc1ccncc1` as the molecule, how does the residual activity (FES (human)) read?
Answer: 96.6%

Question: And the residual activity (LYN (human))?
Answer: 75.1% and 93.7%

Question: What about the residual activity (CDK3 CCNE1 (human)) of the same molecule?
Answer: 87.4%

Question: And the residual activity (JAK2 JH1 JH2 (human))?
Answer: 96.5%

Question: And the residual activity (SGK3 (human))?
Answer: 92.5%

Question: And the residual activity (TEC (human))?
Answer: 134%

Question: And the residual activity (GRK7 (human))?
Answer: 96.2%

Question: And the residual activity (ITK (human))?
Answer: 94.1%

Question: And the residual activity (TXK (human))?
Answer: 97.7%

Question: What about the residual activity (PLK3 (human)) of the same molecule?
Answer: 98.5%

Question: What about the residual activity (CSK (human)) of the same molecule?
Answer: 101%

Question: And the residual activity (MARK2 (human))?
Answer: 92.7%

Question: And the residual activity (SRC (human))?
Answer: 88.8%

Question: And the residual activity (FGFR1 (human))?
Answer: 83.7%

Question: And the residual activity (CAMKK2 (human))?
Answer: 93.9%

Question: And the residual activity (MAPK1 (human))?
Answer: 94.7%

Question: What about the residual activity (PAK1 (human)) of the same molecule?
Answer: 94.9%

Question: What about the residual activity (MAPK9 (human)) of the same molecule?
Answer: 102%

Question: And the residual activity (CDC42BPA (human))?
Answer: 90.5%

Question: And the residual activity (EPHA7 (human))?
Answer: 95%

Question: And the residual activity (INSRR (human))?
Answer: 96.1%

Question: And the residual activity (PRKD3 (human))?
Answer: 92.1%

Question: And the residual activity (RPS6KA6 KD1 KD2 (human))?
Answer: 104%

Question: What about the residual activity (PASK (human)) of the same molecule?
Answer: 97.1%

Question: And the residual activity (TTK (human))?
Answer: 102%

Question: What about the residual activity (EPHB1 (human)) of the same molecule?
Answer: 90.2%

Question: What about the residual activity (NEK1 (human)) of the same molecule?
Answer: 96%

Question: What about the residual activity (MKNK2 (human)) of the same molecule?
Answer: 82.3%

Question: And the residual activity (DDR2 (human))?
Answer: 88.9%

Question: What about the residual activity (RPS6KA3 KD1 KD2 (human)) of the same molecule?
Answer: 91.4%

Question: And the residual activity (AKT3 (human))?
Answer: 97.9%

Question: What about the residual activity (DSTYK (human)) of the same molecule?
Answer: 94.7%

Question: And the residual activity (ADRBK2 (human))?
Answer: 96.1%

Question: What about the residual activity (STK11 (human)) of the same molecule?
Answer: 93.5%

Question: What about the residual activity (FYN (human)) of the same molecule?
Answer: 97%

Question: And the residual activity (BRSK2 (human))?
Answer: 102%

Question: What about the residual activity (NEK7 (human)) of the same molecule?
Answer: 103%

Question: What about the residual activity (CDK5 CDK5R1 p25 (human)) of the same molecule?
Answer: 84.9%

Question: And the residual activity (ALK (human))?
Answer: 103%

Question: What about the residual activity (CAMK1G (human)) of the same molecule?
Answer: 101%

Question: What about the residual activity (PRKCG (human)) of the same molecule?
Answer: 102%

Question: And the residual activity (FGFR4 (human))?
Answer: 84.1%

From the kinase profiling compilation of Christmann-Franck et al. (2016)
